Format in all cases: functional
Assay [1] relates to Schistocerca gregaria. The experiment in a line: Tested for tissue (foreguts isolated from Schistocerca gregaria) contraction response; No activity.
The test system of assay [2] is Schistocerca gregaria. The experiment in a line: Tested for contraction Schistocerca gregaria gut at concentrations ranging from 10 nM to 5 uM and maximum response concentration reported.
Assay [3] deals with Schistocerca gregaria. Put plainly: Tested for tissue (foreguts isolated from Schistocerca gregaria) contraction response at 2 uM.
The subject of assay [4] is Schistocerca gregaria. The experiment in a line: Tested for tissue (foreguts isolated from Schistocerca gregaria) contraction response at 80 uM.

Square brackets hold non-standard residues; d marks the D form. Peptide text beside a SMILES is read from it. NMeT = CN[C@H](C(=O)O)[C@@H](C)O; NMeL = CN[C@@H](CC(C)C)C(=O)O

For the compound `CC(C)C[C@@H](NC(=O)[C@@H](Cc1ccc(O)cc1)N(C)C(=O)[C@@H](N)CCCN=C(N)N)C(=O)N1CCC[C@@H]1C(=O)N[C@H](C(=O)O)[C@H](C)O`, in the assay on Schistocerca gregaria [1], the Activity result is “No activity”. Take `CC(C)C[C@@H](NC(=O)[C@@H](Cc1ccc(O)cc1)NC(=O)[C@@H](N)CCCN=C(N)N)C(=O)N1CCC[C@@H]1C(=O)N[C@H](C(=O)O)[C@H](C)O`: the Concentration with Schistocerca gregaria [2] turned out to be 1 µM. As for `CC(C)C[C@H](NC(=O)[C@H](Cc1ccc(O)cc1)NC(=O)[C@@H](N)CCCN=C(N)N)C(=O)N1CCC[C@H]1C(=O)N(C)[C@H](C(=O)O)[C@@H](C)O` (H-RYLP[NMeT]-OH), the Max contraction with Schistocerca gregaria [3] was found to be 78%. With `CC(C)C[C@@H](C(=O)N1CCC[C@H]1C(=O)N[C@H](C(=O)O)[C@@H](C)O)N(C)C(=O)[C@H](Cc1ccc(O)cc1)NC(=O)[C@@H](N)CCCN=C(N)N` (H-RY[NMeL]PT-OH), the Max contraction in the assay with Schistocerca gregaria [4] worked out at 52%.

The values are drawn from ChEMBL document CHEMBL1128614, “Proctolin and related N-methylated pentapeptides selectively contract locust foregut but not rat ileum” (1995).
